Tested on: Human Cav2.3 channel
Assay: Human Cav2.3 channel calcium-influx assay
Format: cell-based
Settings: Fluo8 fluorescence, HEK-293 T-Rex/Kir2.1/Cav2.3e cells, without pluronic acid
Procedure, shortened: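 HEK-293 T-Rex/Kir2.1 cells with doxycycline (0.2 μg/mL)-inducible Cav2.3e plus Cavβ4-α2δ1, loaded with Fluo8 NW in 0 mM K+ Tyrode's. Compounds (8 points, top 30 μM, half-log, 0.3% final DMSO, n=4) preincubated 3 min at RT, then depolarized with 20 mM KCl/2 mM CaCl2 (final); fluorescence read 130 s.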

| Structure (SMILES) | Cav2.3 (pIC50) |
| --- | --- |
| CCN([C@@H](c1cccc(F)c1)C(F)(F)F)S(=O)(=O)c1cncc(C#N)c1 [Example 112, (S)-5-cyano-N-ethyl-N-(2,2,2-trifluoro-1-(3-fluorophenyl)ethyl)pyridine-3-sulfonamide] | 5.95 |
| Cc1ncc(S(=O)(=O)N(C)[C@@H](c2ccc(F)cc2)C(F)(F)F)cn1 [Example 79, (S)—N,2-dimethyl-N-(2,2,2-trifluoro-1-(4-fluorophenyl)ethyl)pyrimidine-5-sulfonamide] | 4.99 |
| CCN(C(c1ccc(F)cc1)C(F)(F)F)S(=O)(=O)c1cnc(C)c(C#N)c1 (stereo not shown) [Example 55, 5-cyano-N-ethyl-6-methyl-N-(2,2,2-trifluoro-1-(4-fluorophenyl)ethyl)pyridine-3-sulfonamide] | 6.33 |
| CCN([C@@H](c1ccc(F)cc1)C(F)(F)F)S(=O)(=O)c1cncc(N2CCCC2)c1 [Example 97, (S)—N-ethyl-5-(pyrrolidin-1-yl)-N-(2,2,2-trifluoro-1-(4-fluorophenyl)ethyl)pyridine-3-sulfonamide] | 5.22 |
| CN([C@H](c1ccc(Cl)cc1)C(F)(F)F)S(=O)(=O)c1ccc2nncn2n1 [Example 205, (R)—N-(1-(4-chlorophenyl)-2,2,2-trifluoroethyl)-N-methyl-[1,2,4]triazolo[4,3-b]pyridazine-6-sulfonamide] | 5.89 |
| CN([C@H](c1ccc(Cl)cc1)C(F)(F)F)S(=O)(=O)c1cnc2ncccn12 [Example 230, (R)—N-(1-(4-chlorophenyl)-2,2,2-trifluoroethyl)-N-methylimidazo[1,2-a]pyrimidine-3-sulfonamide] | 7.00 |
| CCN([C@H](c1ccc(Cl)cc1)C(F)(F)F)S(=O)(=O)c1cncnc1 [Example 134, (R)—N-(1-(4-chlorophenyl)-2,2,2-trifluoroethyl)-N-ethylpyrimidine-5-sulfonamide] | 7.65 |
| CN([C@H](c1ccc(C(F)(F)F)cc1)C(F)(F)F)S(=O)(=O)c1ccn2ncnc2c1 [Example 215, (R)—N-methyl-N-(2,2,2-trifluoro-1-(4-(trifluoromethyl)phenyl)ethyl)-[1,2,4]triazolo[1,5-a]pyridine-7-sulfonamide] | 7.15 |
| CCN([C@H](c1ccc(F)cc1)C(F)(F)F)S(=O)(=O)c1cnc2cc[nH]c2c1 [Example 149, (R)—N-ethyl-N-(2,2,2-trifluoro-1-(4-fluorophenyl)ethyl)-1H-pyrrolo[3,2-b]pyridine-6-sulfonamide] | 6.61 |
| Cc1ccc(S(=O)(=O)N(C)[C@H](c2ccc(C(F)(F)F)cc2)C(F)(F)F)cn1 [Example 266, (R)—N,6-dimethyl-N-(2,2,2-trifluoro-1-(4-(trifluoromethyl)phenyl)ethyl)pyridine-3-sulfonamide] | 6.54 |
| CN([C@H](c1ccc(C(F)(F)F)cc1)C(F)(F)F)S(=O)(=O)c1cnc2cccnn12 [Example 211, (R)—N-methyl-N-(2,2,2-trifluoro-1-(4-(trifluoromethyl)phenyl)ethyl)imidazo[1,2-b]pyridazine-3-sulfonamide] | 7.17 |
| CN(C(c1ccc(F)cc1)C(F)(F)F)S(=O)(=O)c1cncnc1 (stereo not shown) [Example 58, N-methyl-N-(2,2,2-trifluoro-1-(4-fluorophenyl)ethyl)pyrimidine-5-sulfonamide] | 6.35 |
| CCN(C(c1cccc(C)c1)C(F)(F)F)S(=O)(=O)c1cncc(C#N)c1 (stereo not shown) [Example 113, 5-Cyano-N-ethyl-N-(2,2,2-trifluoro-1-(m-tolyl)ethyl)pyridine-3-sulfonamide] | 6.96 |
| CN([C@H](c1ccc(F)cc1)C(F)(F)F)S(=O)(=O)c1ccc2cnn(C)c2c1 [Example 161, (R)—N,1-dimethyl-N-(2,2,2-trifluoro-1-(4-fluorophenyl)ethyl)-1H-indazole-6-sulfonamide] | 6.22 |
| CCN([C@@H](c1ccc(F)c(F)c1)C(F)(F)F)S(=O)(=O)c1cncc(C#N)c1 [Example 249, (S)-5-cyano-N-(1-(3,4-difluorophenyl)-2,2,2-trifluoroethyl)-N-ethylpyridine-3-sulfonamide] | 5.73 |
| CCN(C(c1ccc(F)cc1)C(F)(F)F)S(=O)(=O)c1cncnc1 (stereo not shown) [Example 57, N-ethyl-N-(2,2,2-trifluoro-1-(4-fluorophenyl)ethyl)pyrimidine-5-sulfonamide] | 6.96 |
| CCN([C@H](c1ccc(F)cc1)C(F)(F)F)S(=O)(=O)c1cncc(N2CCCC2)c1 [Example 98, (R)—N-ethyl-5-(pyrrolidin-1-yl)-N-(2,2,2-trifluoro-1-(4-fluorophenyl)ethyl)pyridine-3-sulfonamide] | 5.80 |
| CCN([C@@H](c1ccc(F)c(C)c1)C(F)(F)F)S(=O)(=O)c1cncc(C#N)c1 [Example 245, (S)-5-cyano-N-ethyl-N-(2,2,2-trifluoro-1-(4-fluoro-3-methylphenyl)ethyl)pyridine-3-sulfonamide] | 5.70 |
| CCN([C@@H](c1ccc(F)cc1)C(F)(F)F)S(=O)(=O)c1ccc2c(c1)OCC2 [Example 41, (S)—N-ethyl-N-(2,2,2-trifluoro-1-(4-fluorophenyl)ethyl)-2,3-dihydrobenzofuran-6-sulfonamide] | 4.72 |

| Structure (SMILES) | Cav2.3 (pIC50) |
| --- | --- |
| CCN([C@H](c1cccc(C)c1)C(F)(F)F)S(=O)(=O)c1cncc(C#N)c1 [Example 114, (R)-5-cyano-N-ethyl-N-(2,2,2-trifluoro-1-(m-tolyl)ethyl)pyridine-3-sulfonamide] | 6.87 |
| CCN([C@H](c1ccc(C)cc1)C(F)(F)F)S(=O)(=O)c1cncc(C#N)c1 [Example 106, (R)-5-Cyano-N-ethyl-N-(2,2,2-trifluoro-1-(p-tolyl)ethyl)pyridine-3-sulfonamide] | 7.51 |
| CCN([C@@H](c1ccc(F)cc1)C(F)(F)F)S(=O)(=O)c1ccc2c(c1)COC2 [Example 37, (S)—N-ethyl-N-(2,2,2-trifluoro-1-(4-fluorophenyl)ethyl)-1,3-dihydroisobenzofuran-5-sulfonamide] | 4.87 |
| CN(C)C(=O)c1ccc(S(=O)(=O)NC(c2ccc(F)cc2)C(F)(F)F)s1 (stereo not shown) [Example 24, N,N-dimethyl-5-(N-(2,2,2-trifluoro-1-(4-fluorophenyl)ethyl)sulfamoyl)thiophene-2-carboxamide] | 4.89 |
| CCN([C@H](c1ccc(C(F)(F)F)cc1)C(F)(F)F)S(=O)(=O)c1cnc2cccnn12 [Example 212, (R)—N-ethyl-N-(2,2,2-trifluoro-1-(4-(trifluoromethyl)phenyl)ethyl)imidazo[1,2-b]pyridazine-3-sulfonamide] | 6.80 |
| Cc1ncc(S(=O)(=O)N(C)C(c2ccc(F)cc2)C(F)(F)F)cn1 (stereo not shown) [Example 74, N,2-dimethyl-N-(2,2,2-trifluoro-1-(4-fluorophenyl)ethyl)pyrimidine-5-sulfonamide] | 5.83 |
| CCN(C(c1cccc(OC)c1)C(F)(F)F)S(=O)(=O)c1cncc(C#N)c1 (stereo not shown) [Example 71, 5-Cyano-N-ethyl-N-(2,2,2-trifluoro-1-(3-methoxyphenyl)ethyl)pyridine-3-sulfonamide] | 6.80 |
| CCN([C@@H](c1ccc(F)cc1)C(F)(F)F)S(=O)(=O)C1CCOCC1 [Example 62, (S)—N-ethyl-N-(2,2,2-trifluoro-1-(4-fluorophenyl)ethyl)tetrahydro-2H-pyran-4-sulfonamide] | 5.20 |
| CCN(C(c1ccc(F)cc1)C(F)(F)F)S(=O)(=O)c1cccc(C#N)n1 (stereo not shown) [Example 30, 6-cyano-N-ethyl-N-(2,2,2-trifluoro-1-(4-fluorophenyl)ethyl)pyridine-2-sulfonamide] | 6.62 |
| CCN([C@@H](c1ccccc1F)C(F)(F)F)S(=O)(=O)c1cncc(C#N)c1 [Example 117, (S)-5-cyano-N-ethyl-N-(2,2,2-trifluoro-1-(2-fluorophenyl)ethyl)pyridine-3-sulfonamide] | 5.38 |
| CCN(C(c1ccc(F)cc1)C(F)(F)F)S(=O)(=O)c1cncnc1 [Example 60, (R)—N-ethyl-N-(2,2,2-trifluoro-1-(4-fluorophenyl)ethyl)pyrimidine-5-sulfonamide] | 7.14 |
| CN([C@H](c1ccc(C(F)(F)F)cc1)C(F)(F)F)S(=O)(=O)c1cccnc1 [Example 267, (R)—N-methyl-N-(2,2,2-trifluoro-1-(4-(trifluoromethyl)phenyl)ethyl)pyridine-3-sulfonamide] | 7.09 |
| CCN([C@H](c1cccc(OC)c1)C(F)(F)F)S(=O)(=O)c1cncc(C#N)c1 [Example 72, (R)-5-Cyano-N-ethyl-N-(2,2,2-trifluoro-1-(3-methoxyphenyl)ethyl)pyridine-3-sulfonamide] | 6.20 |
| CCN(C(c1cccc(C(F)(F)F)c1)C(F)(F)F)S(=O)(=O)c1cncc(C#N)c1 (stereo not shown) [Example 85, 5-Cyano-N-ethyl-N-(2,2,2-trifluoro-1-(3-(trifluoromethyl)phenyl)ethyl)pyridine-3-sulfonamide] | 6.34 |
| CCN([C@H](c1ccc(F)cc1)C(F)(F)F)S(=O)(=O)c1ccc2nncn2n1 [Example 192, (R)—N-ethyl-N-(2,2,2-trifluoro-1-(4-fluorophenyl)ethyl)-[1,2,4]triazolo[4,3-b]pyridazine-6-sulfonamide] | 6.18 |
| CCN([C@H](c1ccc(F)cc1)C(F)(F)F)S(=O)(=O)c1cc2nncn2cn1 [Example 152, (R)—N-ethyl-N-(2,2,2-trifluoro-1-(4-fluorophenyl)ethyl)-[1,2,4]triazolo[4,3-c]pyrimidine-7-sulfonamide] | 6.51 |
| CCN([C@H](c1ccc(F)cc1)C(F)(F)F)S(=O)(=O)c1cccc(C)n1 [Example 33, (R)—N-ethyl-6-methyl-N-(2,2,2-trifluoro-1-(4-fluorophenyl)ethyl)pyridine-2-sulfonamide] | 6.30 |
| CN(C(c1ccc(F)cc1)C(F)F)S(=O)(=O)c1ccc(Cl)s1 (stereo not shown) [Example 23, 5-chloro-N-(2,2-difluoro-1-(4-fluorophenyl)ethyl)-N-methylthiophene-2-sulfonamide] | 5.15 |

From patent publication US20250115569A1, “SULFONAMIDE COMPOUNDS FOR THE TREATMENT OF NEUROLOGICAL CONDITIONS” (LARIO THERAPEUTICS LIMITED, priority 2021, published 2025)
